Laboratory results from patent US6670446B1, “N1 modified glycopeptides” (Eli Lilly and Company, priority 1998, dated 2003).

Legend:
Type in all cases: cell-based
[1] = system: Sensitive Enterococcus faecium and faecalis; experiment: MIC, standard broth micro-dilution assay, Sensitive; conditions: geometric mean of 4-6 isolates
Procedure: (§1) The antibacterial efficacy of the present compounds is illustrated by Table III. The minimal inhibitory concentrations (MICs) were determined using a standard broth micro-dilution assay.

[2] = system: Staphylococcus aureus 491; experiment: MIC, standard broth micro-dilution assay, SA 491
Procedure: as §1

[3] = system: Staphylococcus aureus SA1199A; experiment: MIC, standard broth micro-dilution assay, SA 1199A
Procedure: as §1

[4] = system: Staphylococcus aureus 489; experiment: MIC, standard broth micro-dilution assay, SA 489
Procedure: as §1

[5] = system: Staphylococcus haemolyticus 415; experiment: MIC, standard broth micro-dilution assay, SH 415
Procedure: as §1

[6] = system: Staphylococcus haemolyticus 105; experiment: MIC, standard broth micro-dilution assay, SH 105
Procedure: as §1

[7] = system: Staphylococcus aureus 447; experiment: MIC, standard broth micro-dilution assay, SA 447
Procedure: as §1

[8] = system: Haemophilus influenzae RD; experiment: MIC, standard broth micro-dilution assay, HFRD
Procedure: as §1

[9] = system: Staphylococcus aureus SA1199; experiment: MIC, standard broth micro-dilution assay, SA 1199
Procedure: as §1

[10] = system: Staphylococcus aureus X400; experiment: MIC, standard broth micro-dilution assay, SA X400
Procedure: as §1

[11] = system: Enterococcus faecalis 276; experiment: MIC, standard broth micro-dilution assay, EF 276
Procedure: as §1

[12] = system: Staphylococcus epidermidis 270; experiment: MIC, standard broth micro-dilution assay, SE 270
Procedure: as §1

[13] = system: Staphylococcus aureus S13E
Procedure: as §1

Escherichia coli EC14 = experiment: MIC, standard broth micro-dilution assay, EC 14
Procedure: as §1

[14] = system: Enterococcus faecium 180-1; experiment: MIC, standard broth micro-dilution assay, EF 180-1
Procedure: as §1

Enterococcus faecium 180 = experiment: MIC, standard broth micro-dilution assay, EF 180
Procedure: as §1

[15] = system: Enterococcus faecalis 2041; experiment: MIC, standard broth micro-dilution assay, EF 2041
Procedure: as §1

[16] = system: Enterococcus gallinarum 245; experiment: MIC, standard broth micro-dilution assay, EG 245
Procedure: as §1

[17] = system: Staphylococcus aureus X778; experiment: MIC, standard broth micro-dilution assay, SA X778
Procedure: as §1

[18] = system: Resistant Enterococcus faecium and faecalis; experiment: MIC, standard broth micro-dilution assay, Resistant; conditions: geometric mean of 4-6 isolates
Procedure: as §1

[19] = system: Staphylococcus aureus 446; experiment: MIC, standard broth micro-dilution assay, SA 446
Procedure: as §1

Compound | minimal inhibitory concentration (MIC), Sensitive [1] | minimal inhibitory concentration (MIC), SA 491 [2] | minimal inhibitory concentration (MIC), SA 1199A [3] | minimal inhibitory concentration (MIC), SA 489 [4] | minimal inhibitory concentration (MIC), SH 415 [5] | minimal inhibitory concentration (MIC), SH 105 [6] | minimal inhibitory concentration (MIC), SA 447 [7] | minimal inhibitory concentration (MIC), HFRD [8] | minimal inhibitory concentration (MIC), SA 1199 [9] | minimal inhibitory concentration (MIC), SA X400 [10] | minimal inhibitory concentration (MIC), EF 276 [11] | minimal inhibitory concentration (MIC), SE 270 [12] | minimal inhibitory concentration (MIC), SA S13E [13] | minimal inhibitory concentration (MIC), EC 14 (Escherichia coli EC14) | minimal inhibitory concentration (MIC), EF 180-1 [14] | minimal inhibitory concentration (MIC), EF 180 (Enterococcus faecium 180) | minimal inhibitory concentration (MIC), EF 2041 [15] | minimal inhibitory concentration (MIC), EG 245 [16] | minimal inhibitory concentration (MIC), SA X778 [17] | minimal inhibitory concentration (MIC), Resistant [18] | other results
CC(C)CC(NCc1ccc(-c2ccccc2)cc1)C(=O)NC1C(=O)NC(CC(N)=O)C(=O)NC2C(=O)NC3C(=O)NC(C(=O)NC(C(=O)O)c4cc(O)cc(O)c4-c4cc3ccc4O)C(OC3CC(C)(N)C(O)C(C)O3)c3ccc(c(Cl)c3)Oc3cc2cc(c3OC2OC(CO)C(O)C(O)C2OC2CC(C)(N)C(O)C(C)O2)Oc2ccc(cc2Cl)C1O [Example 34, N^1-[N-(p-phenylbenzyl)-D-leucine] derivative of desleucylA82846B] | 0.44 | ≦.06 | ≦.06 | ≦.06 | 4 | ≦.06 | 0.125 | 64 | 0.125 | ≦.06 | ≦.06 | 0.25 | ≦.06 | >64 | ≦.06 | 2 | 0.25 | ≦.06 | ≦.06 | 38 | minimal inhibitory concentration (MIC), SA 446 [19]: 0.125
CC(C)CC(NCc1ccc(-c2ccccc2)cc1)C(=O)NC1C(=O)NC(CC(N)=O)C(=O)NC2C(=O)NC3C(=O)NC(C(=O)NC(C(=O)O)c4cc(O)cc(O)c4-c4cc3ccc4O)C(OC3CC(C)(N)C(O)C(C)O3)c3ccc(c(Cl)c3)Oc3cc2cc(c3OC2OC(CO)C(O)C(O)C2OC2CC(C)(NCc3ccc(-c4ccccc4)cc3)C(O)C(C)O2)Oc2ccc(cc2Cl)C1O [Example 35, N^1-[N-(p-phenylbenzyl)-D-leucine] derivative of N^DISACC-(p-phenylbenzyl)desleucylA82846B] | 0.66 | 1 | 1 | 2 | 2 | 0.5 | 2 | >64 | 2 | 2 | 1 | 1 | 2 | >64 | 0.25 | 1 | 0.5 | 1 | 1 | 4.8 | minimal inhibitory concentration (MIC), SA 446 [19]: 2
CC(C)CC(NC(=O)OC(C)(C)C)C(=O)NC1C(=O)NC(CC(N)=O)C(=O)NC2C(=O)NC3C(=O)NC(C(=O)NC(C(=O)O)c4cc(O)cc(O)c4-c4cc3ccc4O)C(OC3CC(C)(N)C(O)C(C)O3)c3ccc(c(Cl)c3)Oc3cc2cc(c3OC2OC(CO)C(O)C(O)C2O)Oc2ccc(cc2Cl)C1O [Example 36, N^1-(N-BOC-D-leucine) derivative of desepivancosaminyl desleucylA82846B] | 16 | 2 | 4 | 4 | >64 | 2 | 16 | >64 | 4 | 4 | 4 | 16 | 4 | >64 | 4 | >64 | 8 | 16 | 4 | >128 | minimal inhibitory concentration (MIC), SA 446 [19]: 8
CC(C)CC(N)C(=O)NC1C(=O)NC(CC(N)=O)C(=O)NC2C(=O)NC3C(=O)NC(C(=O)NC(C(=O)O)c4cc(O)cc(O)c4-c4cc3ccc4O)C(OC3CC(C)(N)C(O)C(C)O3)c3ccc(c(Cl)c3)Oc3cc2cc(c3OC2OC(CO)C(O)C(O)C2O)Oc2ccc(cc2Cl)C1O [Example 37, N^1-D-leucine derivative of desepivancosaminyl-desleucylA82846B] | 0.87 | 0.5 | 0.125 | 0.25 | 4 | 0.25 | 1 | 64 | 0.5 | 0.25 | 0.25 | 0.5 | 0.25 | >64 | 0.25 | >64 | 0.5 | 0.5 | 0.25 | >32 | minimal inhibitory concentration (MIC), SA 446 [19]: 0.5
CCCCCCNC(CC(C)C)C(=O)NC1C(=O)NC(CC(N)=O)C(=O)NC2C(=O)NC3C(=O)NC(C(=O)NC(C(=O)O)c4cc(O)cc(O)c4-c4cc3ccc4O)C(OC3CC(C)(N)C(O)C(C)O3)c3ccc(c(Cl)c3)Oc3cc2cc(c3OC2OC(CO)C(O)C(O)C2OC2CC(C)(NCCCCCC)C(O)C(C)O2)Oc2ccc(cc2Cl)C1O [Example 38, N^1-(N-n-hexyl-D-leucine) derivative of N^DISACC-n-hexyl desleucylA82846B] | 0.19 | ≦.06 | ≦.06 | 0.25 | 1 | 1 | 1 | no | 1 | 1 | 0.25 | 1 | 0.5 | >64 | no growth | 2 | ≦.06 | 0.5 | 0.5 | 6.7 | minimal inhibitory concentration (MIC), SA 446 [19]: 1
